{"source": "paper PMC6683117", "about": "(2019)", "system": "KRAS G12D mutated nucleotide (GAT), biotinylated hairpin (DNA, hairpin) TACATCTGATGGCGTATTAAGTTTTCTTAATACGCCATCAGATGTA", "test": "SPR (Biacore X100), kinetic kd/ka", "settings": "150 mM NaCl; HBS-EP (10 mM HEPES, 3 mM EDTA, 0.005% P20), 0.1% DMSO, pH 7.4, 25 °C; printed ka, kd give 3.04 × 10^-8", "data": [{"smiles": "CN(C)CCCNC(=O)CCNC(=O)c1cc(NC(=O)c2nc(NC(=O)c3nc(NC(=O)CCNC(=O)c4cc(NC(=O)c5nc(NC(=O)CCCNC(=O)c6cc(NC(=O)c7cc(NC(=O)c8cc(NC(=O)CCNC(=O)c9cc(NC(=O)c%10nc(NC(=O)CCNC(=O)CCCC[C@@H]%11SC[C@@H]%12NC(=O)NC%12%11)cn%10C)cn9C)cn8C)cn7C)cn6C)cn5C)cn4C)cn3C)cn2C)cn1C", "note": "(stereo partly shown)", "values": [{"measurement": "KD", "value": 304, "unit": "nM"}]}]}
